Legend:
[1] = system: 3T3-L1 adipocytes; assay: Glucose uptake in 3T3-L1 adipocytes (3H-labelled 2-deoxyglucose); type: cell-based; conditions: for Glucose uptake, Mean, Compound + Insulin Group (Control Group = 1.000): with insulin, relative to control without insulin; for fold induction at 10 µM: Mus musculus, 3T3-L1, 2 h incubation, read-out: Glucose uptake, Mean, Compound Group (Control Group = 1.000)
Procedure: The effect of the compounds on baseline or insulin-stimulated glucose uptake was evaluated, using the model of glucose uptake in 3T3-L1 adipocytes.
Adipose tissue is the target of glucose metabolism in vivo. The sensitivity for insulin and availability of glucose in adipose tissues are tightly associated with the insulin resistance. The transportation of glucose into adipocytes is a rate-limiting step for the glucose metabolism, and also an important indicator for evaluating the sensitivity for insulin in adipose tissue. 3T3-L1 is a kind of pre-adipocyte, and can become adipocyte after differentiated completely. Therefore, 3T3-L1 is a desirable model for the glucose transport.
Pre-adipocyte, 3T3-L1 was induced to differentiate under certain conditions. After 3T3-L1 differentiated into adipocytes, the compounds of interest with different concentrations and DMSO (used as control) can be added and incubated with the adipocytes for different periods, then the glucose uptake could be determined. For evaluating the ability for a compound to stimulate glucose uptake, the baseline and insulin-induced glucose uptake were determined, and the increase in baseline and insulin-induced glucose uptake upon treatment of the compounds as compared with control group (with 0.1% DMSO) is calculated, based on the ^3H-labelled 2-deoxyglucose inside the cells.
3T3-L1 cells purchased from Karolinska Institute (Sweden) were cultured in DMEM medium containing 10% fetal calf serum at 37° C., under 5% CO2. The cells were passaged every 3-4 days. The cells were inoculated into 12-well plate. Upon confluence, culture medium containing 0.5 mM 3-isobutyl-1-methylxanthine, 0.25 μM dexamethasone and 5 μg/ml insulin was added and cultured for 3 days. Then, the culture medium was replaced by a medium containing 5 μg/ml insulin and further cultured for 3 days. The insulin was removed, and the cells had differentiated completely into mature adipocytes after 2 days which could be used to determine the glucose uptake.
23 compounds chosen by the inventors were added into the culture medium of adipocytes in a dose of 10 μM. After incubation for 2 h, the effect of the compounds on glucose uptake in 3T3-L1 cells was observed. Culture medium without compounds was used as negative control. The control group only supplemented with insulin and the experiment group supplemented with compounds plus insulin were also employed to observe the effect of the compounds on glucose uptake.

[2] = system: AMP-Activated Protein Kinase (AMPK); assay: Phosphorylation of AMPK in HepG2 cell (Western blot); type: cell-based, Human; conditions: HepG2, 50 uM, 5 minutes, P<0.01 or P<0.05
Procedure: (§1) Human hepatoma carcinoma cell strain (HepG2, purchased from the cell bank of Shanghai Institute of Cell Biology of Chinese Academy) was used. The Human hepatoma carcinoma cells were passaged by 0.1% pancreatin/0.02% EDTA digestion, and cultured in a incubator at 37° C. using MEM culture medium containing 10% FBS, under 5% CO2/95%.
(§2) HepG2 cells were cultured in 6-well plates for 48 hours until 70%-80% confluence. Serum starvation was started by changing medium with MEM containing 0.5% BSA. After starvation for 6 hours, cells were treated with the compounds (final concentration of 50 uM, containing 0.25% DMSO) for 5 minutes. The culture medium was discarded, and cells were harvested and washed for twice with pre-cooled PBS. The washing liquid was discarded, and any residual PBS was blotted dry. DMSO without heptacyclic compounds was used as control.
(§3) Extraction of total cellular protein: 150 μl/well homogenizing buffer (137 mM NaCl, 2.7 mM KCl, 1 mM MgCl2, 0.5 mM Na3VO4, 1% Triton X-100, 10% Glycerol, 20 mM Tris-HCl pH 7.8, 1 ug/ml Leupeptin, 0.2 mM PMSF, 10 mM NaF, 1 ug/ml Aprotinin, 1 mM EDTA, 1 mM DTT, 5 mM Sodium pyrophosphate, 1 mM Benzamidine) was added. Cells were collected into a 1.5 ml centrifuge tube using cell scraper. Cells were homogenized using sonicator (5 W of power) for 2 times (3 seconds per time), and shaken on a shaker for 1 hour. Supernatant (i.e., total cellular protein) was collected by centrifuging at 14000 rpm for 15 min at 4° C., and stored at −70° C. until use. After the protein concentration was determined by Bradford method, the supernatant was formulated as the loading sample with final concentration of 0.6 mg/ml. The whole preparation process was performed at 4° C.
(§4) Protein Electrophoresis: After being treated at 95° C. for 5 min, the loading sample was loaded (15 μg protein/lane). The protein was separated on 7.5% SDS-acrylamide gel for 1-2 hours under the voltage of 80-120 V.
(§5) Electrotransferring the protein and blocking the membrane: After electrophoresis was finished, the protein was transferred to PVDF membrane using semi-dry transferring slot based on 0.8 mA/cm^2 membrane area under the electric current of 80 mA for 2 hours. After that, the membrane was shaken for 2 hours with 7.5% skim milk/TTBS to block the membrane.
(§6) Antigen-antibody reaction: After the blocking process was finished, the membrane was incubated with primary antibody (antibody against phosphorylated ACC (P-ACC) and antibody against phosphorylated AMPK (P-AMPK), all purchased from Cell signaling (USA), with the working concentration of 1:1000) overnight at 4° C. The membrane was removed, and the primary antibody was recovered. The membrane was washed 5 times, each for 10 min in TTBS. The membrane was shaken for 2 hours with the secondary antibody (horseradish peroxidase-conjugated goat-anti-rabbit IgG antibody, purchased from Bio-rad (USA), with the working concentration of 1:5000) at room temperature. The secondary antibody was discarded. The membrane was washed 5 times, each for 10 min in TTBS in order to remove the unbound secondary antibody.
(§7) ECL exposure and development: Luminescent agents, ECL 1, 2, were mixed homogeneously, and incubated with the membrane for 3-5 min. The membrane was removed, wrapped in preservative film, and transferred into dark room for exposure. After exposure with X-film, the film was developed, washed, recorded and conserved.
(§8) Semi-quantitative analysis was performed through optical density scan using computer image analysis system. Grey level of the protein expression was calculated. The target grey level was divided by the grey level of internal standard, and a histogram was plotted, taking the normal group as 1 unit.

[3] = system: Acetyl CoA Carboxylase (ACC); assay: Phosphorylation of ACC in HepG2 cell (Western blot); type: cell-based, Human; conditions: HepG2, 50 uM, 5 minutes, P<0.01 or P<0.05
Procedure: as §1, §2, §3, §4, §5, §6, §7, §8

[4] = baseline (without insulin), relative to control

| SMILES | Glucose uptake, Mean, Compound + Insulin Group (Control Group = 1.000) ([1]; 10 μM, 2 h incubation) | fold induction at 10 µM [1, 4] | Level of phosphorylation for AMPK protein versus DMSO control [2] | Level of phosphorylation for ACC protein versus DMSO control [3] | Glucose uptake, Mean, Compound Group (Control Group = 1.000) ([1]; 10 μM, 2 h incubation, baseline (without insulin), relative to control) |
| --- | --- | --- | --- | --- | --- |
| O=C1Oc2ccccc2Oc2ccccc21 [AA0, Dibenzo[b,e][1,4]dioxepin-11-one] | 2.130 | 1.12 | – | – | – |
| CCCOC(=O)c1cc(OC)c(C)c2c1Oc1c(CNc3ccc(S(N)(=O)=O)cc3)c(O)cc(C)c1C(=O)O2 [AA5, 3-Hydroxy-8-methoxy-1,9-dimethyl-11-oxo-4-[(4-sulfamoyl-phenylamino)-methyl]-11H-dibenzo[b,e][1,4]dioxepine-6-carboxylic acid propyl ester] | – | – | increased significantly | – | – |
| CCCOC(=O)c1cc(OC)c(C)c2c1Oc1c(CNCCN3CCOCC3)c(O)cc(C)c1C(=O)O2 [AA6, 3-Hydroxy-8-methoxy-1,9-dimethyl-4-[(2-morpholin-4-yl-ethylamino)-methyl]-11-oxo-11H-dibenzo[b,e][1,4]dioxepine-6-carboxylic acid propyl ester] | – | – | increased significantly | improved significantly | – |
| COc1cc(C(=O)O)c2c(c1C)OC(=O)c1c(C)cc(O)c(CNc3ccc(F)cc3)c1O2 [AA7, 4-[(4-Fluoro-phenylamino)-methyl]-3-hydroxy-8-methoxy-1,9-dimethyl-11-oxo-11H-dibenzo[b,e][1,4]dioxepine-6-carboxylic acid] | 1.786 | 1.13 | – | improved significantly | – |
| CNC(=O)c1cc(OC)c(C)c2c1Oc1c(C=O)c(O)cc(C)c1C(=O)O2 [AB2, 4-Formyl-3-hydroxy-8-methoxy-1,9-dimethyl-11-oxo-11H-dibenzo[b,e][1,4]dioxepine-6-carboxylic acid methylamide] | 1.639 | 1.18 | – | – | – |
| CCNC(=O)c1cc(OC)c(C)c2c1Oc1c(C=O)c(O)cc(C)c1C(=O)O2 [AB4, 4-Formyl-3-hydroxy-8-methoxy-1,9-dimethyl-11-oxo-11H-dibenzo[b,e][1,4]dioxepine-6-carboxylic acid ethylamide] | 1.837 | 1.11 | – | – | – |
| COc1cc(C(=O)Nc2ccc(S(N)(=O)=O)cc2)c2c(c1C)OC(=O)c1c(C)cc(O)c(C=Nc3ccc(S(N)(=O)=O)cc3)c1O2 [AB9, 3-Hydroxy-8-methoxy-1,9-dimethyl-11-oxo-4-[(4-sulfamoylphenyl)-iminomethyl]-11H-dibenzo[b,e][1,4]dioxepine-6-[carboxy-(4-sulfamoyl)phenylamide]] | 1.555 | – | – | – | 1.150 |
| COc1ccc2c(c1)NC(=O)c1cc(Cl)c(O)cc1N2 [BT5, 2-Chloro-3-hydroxy-8-methoxy-5,10-dihydro-dibenzo[b,e][1,4]diazepin-11-one] | 1.728 | 1.23 | – | improved significantly | – |
| Cc1cc2c(c(C(=O)O)c1)Nc1ncccc1C(=O)N2 [BT7, 8-Methyl-5-oxo-6,11-dihydro-5H-benzo[b]pyrido[2,3-e][1,4]diazepine-10-carboxylic acid] | – | – | increased significantly | improved significantly | – |
| COc1cnc2c(c1)NC(=O)c1ccc(O)c(C=O)c1N2 [BU0, 9-Hydroxy-3-methoxy-6-oxo-6,11-dihydro-5H-benzo[e]pyrido[3,2-b][1,4]diazepine-10-carbaldehyde] | 2.147 | 1.43 | increased significantly | – | – |
| COC(=O)c1cc(OC)c(C)c2c1Oc1c(C=O)c(O)cc(C)c1C(=O)O2 [Compound A0, 4-Formyl-3-hydroxy-8-methoxy-1,9-dimethyl-11-oxo-11H-dibenzo[b,e][1,4]dioxepine-6-carboxylic acid methyl ester] | 2.710 | 1.33 | – | improved significantly | – |
| CCCCOC(=O)c1cc(OC)c(C)c2c1Oc1c(C=O)c(O)cc(C)c1C(=O)O2 [Compound A6, 4-Formyl-3-hydroxy-8-methoxy-1,9-dimethyl-11-oxo-11H-dibenzo[b,e][1,4]dioxepine-6-carboxylic acid butyl ester] | – | – | significant up-regulation | improved significantly | – |
| COc1cc(C(=O)O)c2c(c1C)OC(=O)c1c(C)cc(O)c(CN3CCNCC3)c1O2 [Compound D1, 3-Hydroxy-8-methoxy-1,9-dimethyl-11-oxo-4-(piperazin-1-ylmethyl)-11H-dibenzo[b,e][1,4]dioxepine-6-carboxylic acid] | 3.673 | 1.28 | increased significantly | – | – |
| COc1cc(C(=O)O)c2c(c1C)OC(=O)c1c(C)cc(O)c(CNC(C)(C)C)c1O2 [Compound D3, 4-(tert-Butylamino-methyl)-3-hydroxy-8-methoxy-1,9-dimethyl-11-oxo-11H-dibenzo[b,e][1,4]dioxepine-6-carboxylic acid] | 3.001 | 1.12 | – | – | – |
| COc1cc(C(=O)O)c2c(c1C)OC(=O)c1c(C)cc(O)c(CN3CCN(Cc4ccccc4)CC3)c1O2 [Compound D4, 4-(4-Benzyl-piperazin-1-ylmethyl)-3-hydroxy-8-methoxy-1,9-dimethyl-11-oxo-11H-dibenzo[b,e][1,4]dioxepine-6-carboxylic acid] | 3.717 | 1.19 | – | – | – |
| COc1cc(C(=O)O)c2c(c1C)OC(=O)c1c(C)cc(O)c(CNc3ccc(NC(C)=O)cc3)c1O2 [Compound D8, 4-[(4-Acetylamino-phenylamino)-methyl]-3-hydroxy-8-methoxy-1,9-dimethyl-11-oxo-11H-dibenzo[b,e][1,4]dioxepine-6-carboxylic acid] | 3.877 | 1.21 | – | improved significantly | – |
